From patent US20140221385A1, “COMBINATIONS OF SEROTONIN RECEPTOR AGONISTS FOR TREATMENT OF MOVEMENT DISORDERS” (CONCIT PHARMA APS, priority 2011, published 2014)

Columns and labels:
[1] = tested on: 6-OHDA unilateral lesion model rats; test: Forepaw adjusting steps (FAS) test, 6-OHDA induced akinesia; assay type: in vivo, rat; details: for average percentage of adjusting steps (impaired paw to intact paw): L-DOPA 3 mg/kg with 15 mg/kg benserazide s.c. 60 min pretest
[2] = tested on: unilaterally 6-OHDA-lesioned rats; test: L-DOPA induced AIMs and drugs screening test in the 6-OHDA rat model; assay type: in vivo; details: for L-DOPA-induced dyskinesia (AIMs): Example XIII; for L-DOPA induced AIMs (Lim+Ax+OI): Example X, FIG. 5
Experimental: 6-OHDA (6-hydroxydopamine) is a neurotoxin that selectively kills dopaminergic and noradrenergic neurons and induces a reduction of dopamine levels in the brain. Administration of L-DOPA to unilaterally 6-OHDA-lesioned rats induces abnormal involuntary movements (ATMs). These are axial, limb and oral movements that occur only on the body side that is […] to the lesion.
DA-denervating lesions are performed by unilateral injection of 6-OHDA in the ascending nigrostriatal pathway. Rats were anesthetized with pentobarbital sodium 40 mg/kg (i.p.) and positioned in a stereotactic frame. 6-OHDA is injected into the right ascending DA bundle at the following coordinates (in mm) relative to bregma and dural surface: (1) toothbar position −2.3, A=−4.4, L=1.2, V=7.8, (7.5 ug 6-OHDA), (2) toothbar position +3.4, A=−4.0, L=0.8, V=8.0 mm (6 ug 6-OHDA). The neurotoxin injections are performed at a rate of 1 ul/min, and the injection cannula is left in place for an additional 2-3 min thereafter. Two weeks after surgery rats with nearly complete (>90%) lesions are selected by means of an amphetamine-induced rotation test. The animals are placed in plastic Perspex bowls (30 cm in diameter) and the rotational behavior (360° turns) is recorded by an automated rotometer for 90 min after the i.p. injection of 2.5 mg/kg d-amphetamine sulphate. […] Animals are then allocated into two well-matched sub-groups (according to the amphetamine rotation) and receive daily treatment as described below.
L-DOPA methyl ester (Sigma-Aldrich, Germany) is given at the dose of 6 mg/kg, combined with 15 mg/kg of benserazide HCl (Sigma-Aldrich, Germany). […] The selected rats are allocated groups of 9-12 animals each, which are balanced with the respect to AIM severity. The animals are then treated with the drug and drug combinations as described below.
AIMs ratings are performed by an investigator who was kept unaware of the pharmacological treatment administered to each rat (experimentally blinded). […] The AIM's are classified into four subtypes:
(A) axial AIMs, i.e., dystonic or choreiform torsion of the trunk and neck towards the side contralateral to the lesion. In the mild cases: lateral flexion of the neck or torsional movements of the upper trunk towards the side contralateral to the lesion. With repeated injection of L-DOPA, this movement may develop into a pronounced and continuous dystonia-like axial torsion. (B) limb AIMs, i.e., jerky and/or dystonic movements of the forelimb contralateral to the lesion. In mild cases: hyperkinetic, jerky stepping movements of the forelimb contralateral to the lesion, or small circular movements of the forelimb to and from the snout. As the severity of dyskinesia increases (which usually occurs with repeated administration of L-DOPA), the abnormal movements increase in amplitude, and assume mixed dystonic and hyperkinetic features. Dystonic movements are caused by sustained co-contraction of agonist/antagonist muscles; they are slow and force a body segment into unnatural positions. Hyperkinetic movements are fast and irregular in speed and direction. […] (C) orolingual AIMs, i.e., twitching of orofacial muscles, and bursts of empty masticatory movements with protrusion of the tongue towards the side contralateral to the lesion. This form of dyskinesia affects facial, tongue, and masticatory muscles. It is recognizable as bursts of empty masticatory movements, accompanied to a variable degree by jaw opening, lateral translocations of the jaw, twitching of facial muscles, and protrusion of the tongue towards the side contralateral to the lesion. […] Each of the four subtypes are scored on a severity scale from 0 to 4, where 0=absent, 1=present during less than half of the observation time, 2=present for more than half of the observation time, 3=present all the time but suppressible by external stimuli, and 4=present all the time and not suppressible by external stimuli.

Parkinson's disease = details: cited from earlier work
naïve rats = test: Open field test (Example VI); assay type: in vivo, rat; details: pentobarbital 15 mg/kg i.p. 30 min before test, positive control; FIG. 3
Experimental: The open field test was used to determine the effects of drug on locomotor activity. Rats were put in open-field chambers (dimensions 40 cm×40 cm×40 cm) 30 minutes after dosing. After a 15 minutes habituation, locomotion were recorded and analysed by Enthovision Video Tracking Software (Noldus Information Technology, Netherlands) for 60 minutes. All locomotor activities were done during dark phase and to eliminate olfactory cues, the arena was thoroughly cleaned with 70% v/v ethanol between each test.
Group setting for compound tests: Vehicle: Saline, i.p., 30 min before test, n=10 Positive control: Pentobarbital 15 mg/kg, i.p. 30 min before test, n=10
Zolmitriptan 3 mg/kg, i.p. 5 min before buspirone Buspirone 1 mg/kg, i.p. 30 min before test, n=10
Statistical analysis: The total locomotor activity is expressed as total moved distance (cm) and average velocity (cm/s) during 60 minutes. The data were analysed using One-Way ANOVA and the Tukey post-hoc test. The locomotor activity in six time point is expressed as moved distance (cm) and average velocity (cm/s) every 10 minutes. The data were analysed using One-Way ANOVA and the Tukey post-hoc test in each time point.

Sprague-Dawley (SD) rats = test: Rotarod test (Example V); assay type: in vivo, rat; details: pentobarbital 15 mg/kg i.p. 30 min before test, positive control; FIG. 2
Experimental: In brief, the animals (30 SD male rats (180-220 g, bred in house, originally from SLAC Laboratory Animal Co. Ltd) at 9-week of age) were trained twice a day for a 3-day period. […] Each training trial was ended if the animal fell off or grips the device and spun around for two consecutive revolutions. The time that rat stayed on the Rotarod was recorded. The staying duration recorded at last training trail was used as baseline. Rats were grouped according a randomly distribution of baseline.
For the test session on the fourth day, the rats were evaluated on the Rotarod with the same setting as above at 30 min after dosing. The rats were dosed with drugs as described below. Dosing and Rotarod measurement were conducted by two scientists separately. Pentobarbital (15 mg/kg. i.p.) was used a as a positive control.
Vehicle: Saline, i.p., 30 min before test, n=10 Positive control: Pentobarbital 15 mg/kg, i.p. 30 min before test, n=10
The data were analyzed using One-Way ANOVA and the Tukey post-hoc test.

Huntington's disease = details: one patient suffering from Huntington's disease; cited from earlier work
LID = details: cited from earlier work

Structure (SMILES): N[C@@H](Cc1ccc(O)c(O)c1)C(=O)O [L-DOPA, 3,4-dihydroxyphenylalanine]
- average percentage of adjusting steps (impaired paw to intact paw) ([1]; first study): 77.8%
- 6-OHDA induced akinesia, forelimb use ([1]; first study, acute L-DOPA 3 mg/kg with 15 mg/kg benserazide): alleviated 6-OHDA induced akinesia by increasing the forelimb use
- forelimb use ([1]; second study, L-DOPA 3 mg/kg with 15 mg/kg benserazide HCl): significantly increase the forelimb use
- average percentage of adjusting steps (impaired paw to intact paw) ([1]; second study): 77.7%

Structure (SMILES): O=C1CC2(CCCC2)CC(=O)N1CCCCN1CCN(c2ncccn2)CC1 [buspirone, 8-[4-(4-pyrimidin-2-ylpiperazin-1-yl)butyl]-8-azaspiro[4.5]decane-7,9-dione]
- L-DOPA-induced AIM (Total AIMs) ([2]; Example IV, FIG. 1, buspirone 1 mg/kg i.p. given alone): only partly reduced AIM
- L-DOPA-induced AIM (Total AIMs) ([2]; Example VII, FIG. 4, buspirone 0.5 mg/kg i.p. given alone): only partly reduced AIM
- L-DOPA-induced dyskinesia (AIMs) ([2]; buspirone 0.25 and 0.5 mg/kg s.c. 25 min before test): significantly reduced L-DOPA-induced dyskinesia
- disability ratings (Parkinson's disease; 100 mg/day): significant worsening of disability ratings
- dyskinesia (Parkinson's disease; 100 mg/day): reduced dyskinesia
- effects on Parkinson's disease or dyskinesia (Parkinson's disease; 10-60 mg/day): did not have any effects on Parkinson's disease or dyskinesia

Structure (SMILES): CCCC(C)C1(CC)C(=O)NC(=O)NC1=O (stereo not shown) [pentobarbital]
- open field locomotor activity (total move distance) (naïve rats): significantly reduced motor performance
- rotarod performance (time on the rod) (Sprague-Dawley (SD) rats): significantly reduced time spend on the rotarod

Structure (SMILES): O=C1[C@H]2CCCC[C@H]2C(=O)N1CCCCN1CCN(c2nsc3ccccc23)CC1 [perospirone, (3aR, 7aS)-2-{4-[4-(1,2-benzisothiazol-3-yl)piperazin-1-yl]butyl}hexahydro-1H-isoindole-1,3(2H)-dione]
- involuntary movement (Huntington's disease): could reduce involuntary movement

Structure (SMILES): Fc1ccc(-c2cncc(CNC[C@H]3CCc4ccccc4O3)c2)cc1 [sarizotan, 1-[(2R)-3,4-dihydro-2H-chromen-2-yl]-N-([5-(4-fluorophenyl)pyridin-3-yl]methyl)methanamine]
- LID (LID; phase 2A study and open labeled study): reduced LID
- LID, effect compared to placebo (LID; several large phase 2b studies): no significant effects

Structure (SMILES): O=C1[C@@H]2[C@@H]3CC[C@@H](C3)[C@@H]2C(=O)N1CCCCN1CCN(c2ncccn2)CC1 [tandospirone, (1R,2R,6S,7S)-4-{4-[4-(pyrimidin-2-yl)piperazin-1-yl]butyl}-4-azatricyclo[5.2.1.02,6]decane-3,5-dione]
- L-DOPA induced AIMs (Lim+Ax+OI) ([2]; tandospirone 1 mg/kg i.p. 30 min before test): partially and briefly reduce AIMs
- L-DOPA induced AIMs (Lim+Ax+OI) ([2]; tandospirone 2 mg/kg i.p. 30 min before test): partially and briefly reduce AIMs
- L-DOPA-induced dyskinesia (AIMs) ([2]; tandospirone 1 and 2 mg/kg i.p. 25 min before test): significantly reduced L-DOPA-induced dyskinesia

Structure (SMILES): CN(C)CCc1c[nH]c2ccc(C[C@H]3COC(=O)N3)cc12 [zolmitriptan, (S)-4-({3-[2-(dimethylamino)ethyl]-1H-indol-5-yl}methyl)-1,3-oxazolidin-2-one]
- L-DOPA-induced AIM (Total AIMs) ([2]; Example IV, FIG. 1, zolmitriptan 10 mg/kg i.p. given alone): did not reduce AIM
